Measured values as given in patent US5541181A, “Compound produced by a strain of micromonospora” (Bristol-Myers Squibb Company, priority 1994, dated 1996).
≈ marks a conversion by molar mass, not a printed value. Where two headings read alike, the source gives them in different places.

What was measured:
P388 leukemia = type: in vivo, mouse; conditions: ip; for T/C: ≥ 125 significantly active; for Avg Weight change on day 4: mouse, in vivo
Description: (§1) B16 melanoma was intraperitoneally (ip) inoculated with 0.5 ml of 10% brei per male BDF1 mouse, and P388 leukemia intraperitoneally inoculated with 10^6 cells per female CDF1 mouse. The test materials were intraperitoneally administered to the tumor-bearing mice by the following treatment schedules: once daily on days 1 to 3 (Q1D×3), once a day on days 1, 4, and 7 (Q3D×3) and once a day on days 1, 5 and 9 (Q4D×3).
(§2) The in vivo antitumor activity was determined in tumor-bearing mice.

B16 melanoma = type: in vivo, mouse; conditions: ip; for MST (Median survival time) / T/C: Q4D × 3; for Avg Weight change on day 5: mouse, in vivo
Description: as §1, §2

K562 cells = test: In vitro cytotoxicity, K562 (human myelogenous leukemia), neutral red, 72 hours; type: cell-based; conditions: K562, 72 hours
Description: (§3) In Vitro Cytoxicity. B16-F10 (murine melanoma) and Moser (human colorectal carcinoma) were grown in Eagle's minimum essential medium (Nissui) supplement with fetal calf serum (FCS, 10%) and kanamycin (60 μg/ml), HCT-116 (human colon carcinoma) cells were grown in McCoy's 5A Medium (Gibco) supplemented with FCS (10%), penicillin (100 u/ml) and streptomycin (100 μg/ml), and K562 (human myelogenous leukemia) were in RPM 11640 medium supplemented with FCS (10%), penicillin (100 u/ml) and streptomycin (100 μg/ml) at 37° C. under humidified atmosphere in a CO2 incubator. The exponentially growing B16-F10, Moser, K562 and HCT-116 cells were harvested, counted and suspended in the culture media at 1.5×10^4, 6×10^4, 3×10^4 and 8×10^4 cells/ml, respectively. The test materials were planted into the wells of 96 or 24-well tissue culture plate and for 72 hours. The cytotoxic activities were colorimetrically determined at 540 nm after staining viable cells with neutral red solution.

5-lipoxygenase (5-LPO) = biological target: T1, 5-lipoxygenase (5-LPO) (Rattus norvegicus, UniProt P12527); test: 5-Lipoxygenase (5-LPO) inhibitory activity: 5-HETE produced in a cell-free extract of rat basophilic leukemia (RBL-1) cells; type: biochemical
T1 construct: produced in a cell-free extract of rat basophilic leukemia cells (RBL-1 cells, ATCC CRL 1378); endogenous in cells; host or cells: RBL-1 cells (rat basophilic leukemia), ATCC CRL 1378; cell-free extract
T1 sequence (P12527 1-673): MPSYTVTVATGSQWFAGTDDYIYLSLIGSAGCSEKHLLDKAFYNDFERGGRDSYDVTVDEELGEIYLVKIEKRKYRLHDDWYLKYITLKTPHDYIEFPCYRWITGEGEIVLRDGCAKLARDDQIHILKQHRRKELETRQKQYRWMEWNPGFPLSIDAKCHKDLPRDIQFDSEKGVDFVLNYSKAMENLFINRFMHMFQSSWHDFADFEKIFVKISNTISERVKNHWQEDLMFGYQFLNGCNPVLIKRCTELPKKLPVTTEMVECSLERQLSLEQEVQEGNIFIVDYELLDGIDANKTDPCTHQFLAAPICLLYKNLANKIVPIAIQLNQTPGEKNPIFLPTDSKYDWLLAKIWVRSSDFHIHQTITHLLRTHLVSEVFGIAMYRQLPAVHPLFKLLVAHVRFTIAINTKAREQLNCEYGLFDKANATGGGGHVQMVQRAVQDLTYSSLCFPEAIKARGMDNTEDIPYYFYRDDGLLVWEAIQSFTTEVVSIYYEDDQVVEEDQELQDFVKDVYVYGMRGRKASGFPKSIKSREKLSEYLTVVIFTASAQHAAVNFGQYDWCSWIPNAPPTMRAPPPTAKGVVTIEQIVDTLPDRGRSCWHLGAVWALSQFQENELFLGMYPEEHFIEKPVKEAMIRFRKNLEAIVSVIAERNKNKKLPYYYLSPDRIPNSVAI
Description: 20-Jar Fermentation. A 5-ml portion of the seed culture was transferred into a 500-ml Erlenmeyer flask containing 100 ml of the seed medium described above. Fermentation was carried out for 3 days at 28° C. and 200 rpm. This seed culture (500 ml) was inoculated into a 20-liter jar fermentor containing 12 liters of the production medium composed of soluble starch 2%, Pharmamedia (Trader's Protein) 1%, yeast extract 0.2%, ZnSO4 ·7H2 O 0.003% and CaCO3 0.4% (pH 7.0) and fermented for 3 days under the following conditions: temperature, 28° C.; aeration, 10 liters/minute; internal pressure, 0.5 kg/cm^2; agitation, 250 rpm. For preparation of an assay sample, a 3-ml of the whole broth was extracted with the same volume of n-butanol. After centrifugation, the solvent layer was evaporated to dryness and dissolved into the same volume of 10% dimethylsulfoxide (DMSO) solution. The solution was used as an assay sample.

[1] = test system: K562, B16-F10 and Moser cells; test: In vitro cytotoxicity, range over K562, B16-F10 and Moser; type: cell-based, murine and human; conditions: vs K562, B16-F10 and Moser; read-out: IC50 (inhibited growth of tumor cell lines), range
Description: as §3

Solubility = type: physicochemical
HCT-116 cells = test: In vitro cytotoxicity, HCT-116 (human colon carcinoma), neutral red, 72 hours; type: cell-based; conditions: for IC50: Homo sapiens, HCT-116, 72 hours; for cytotoxicity: HCT-116, compared with BU-4664L
Description: as §3

B16-F10 cells = test: In vitro cytotoxicity, B16-F10 (murine melanoma), neutral red, 72 hours; type: cell-based; conditions: for IC50: Mus musculus, B16-F10, 72 hours; for cytotoxicity: B16-F10, compared with BU-4664L
Description: as §3

Moser cells = test: In vitro cytotoxicity, Moser (human colorectal carcinoma), neutral red, 72 hours; type: cell-based
Description: as §3

[2] = Table 8, rat 5-LPO, read-out: IC50 (5-Lipoxygenase Inhibitory Activity)

## CC(C)=CCC/C(C)=C/CC/C(C)=C/CN1c2cc(O)cc(O)c2NC(=O)c2cccc(O)c21 [BU-4664L, 5-farnesyl-4,7,9-trihydroxy dibenzo[b,e][1,4]diazepin-11-one]
P388 leukemia
  T/C values against P388 leukemia: good T/C values
  survival time of mice inoculated with P388: significant prolongation of the survival time
P388 leukemia; 0.3 mg/kg/day, Q1D × 3
  MST (Median survival time): 12.0 days
  T/C: 120%
P388 leukemia; 1 mg/kg/day, Q1D × 3
  MST (Median survival time): 11.0 days
  T/C: 110%
P388 leukemia; 1 mg/kg/day, Q3D × 3
  MST (Median survival time): 11.9 days
  T/C: 119%
P388 leukemia; 3 mg/kg/day, Q1D × 3
  MST (Median survival time): 13.0 days
  T/C: 130%
P388 leukemia; 3 mg/kg/day, Q3D × 3
  MST (Median survival time): 15.2 days
  T/C: 152%
P388 leukemia; 10 mg/kg/day, Q1D × 3
  MST (Median survival time): 15.0 days
  T/C: 150%
P388 leukemia; 10 mg/kg/day, Q3D × 3
  MST (Median survival time): 16.2 days
  T/C: 162%
P388 leukemia; 30 mg/kg/day, Q1D × 3
  MST (Median survival time): 16.0 days
  T/C: 160%
P388 leukemia; 30 mg/kg/day, Q3D × 3
  MST (Median survival time): 12.5 days
  T/C: 152%
P388 leukemia; 0.3 mg/kg/day
  Avg Weight change on day 4: +0.5 g
B16 melanoma
  survival time of mice inoculated with B16 melanoma: significant prolongation of the survival time
B16 melanoma; 3 mg/kg/day
  MST (Median survival time): 16.5 days
  T/C: 127%
  Avg Weight change on day 5: +0.3 g
B16 melanoma; 10 mg/kg/day
  MST (Median survival time): 17.5 days
  T/C: 135%
  Avg Weight change on day 5: +0.3 g
B16 melanoma; 30 mg/kg/day
  MST (Median survival time): 17.0 days
  T/C: 131%
  Avg Weight change on day 5: -0.8 g
B16 melanoma; compared with Mitomycin C
  activity against B16 melanoma in terms of minimum effective dose: weaker than Mitomycin C
K562 cells
  IC50: 1.1 µg/mL (≈ 2.38 µM)
5-lipoxygenase (5-LPO); rat 5-LPO
  5-LPO inhibitory activity: good 5-LPO inhibitory activity
5-lipoxygenase (5-LPO); rat 5-LPO, read-out: IC50 (5-LPO inhibitory activity)
  IC50: 1.7 µM
[1]
  IC50: 1.1 to 18 µg/mL (≈ 2.38 to 38.9 µM)
Solubility; chloroform
  solubility: slightly soluble
Solubility; dimethyl sulfoxide
  solubility: soluble
Solubility; ethanol
  solubility: soluble
Solubility; ethyl acetate
  solubility: soluble
Solubility; methanol
  solubility: soluble
Solubility; n-hexane
  solubility: insoluble
Solubility; water
  solubility: insoluble
HCT-116 cells
  IC50: 2.6 µg/mL (≈ 5.62 µM)
B16-F10 cells
  IC50: 1.9 µg/mL (≈ 4.11 µM)
Moser cells
  IC50: 18 µg/mL (≈ 38.9 µM)

## CO[C@@]12[C@H](COC(N)=O)C3=C(C(=O)C(C)=C(N)C3=O)N1C[C@@H]1N[C@@H]12 [Mitomycin C, reference compound]
P388 leukemia; 0.3 mg/kg/day, Q1D × 3
  MST (Median survival time): 12.5 days
  T/C: 119%
P388 leukemia; 1 mg/kg/day, Q1D × 3
  MST (Median survival time): 16.0 days
  T/C: 152%
P388 leukemia; 3 mg/kg/day, Q1D × 3
  MST (Median survival time): 21.0 days
  T/C: 200%
P388 leukemia; 0.3 mg/kg/day
  Avg Weight change on day 4: +0.3 g
P388 leukemia; 1 mg/kg/day
  Avg Weight change on day 4: 0.0 g
P388 leukemia; 3 mg/kg/day
  Avg Weight change on day 4: -1.5 g
B16 melanoma; 0.5 mg/kg/day
  MST (Median survival time): 16.0 days
  T/C: 123%
  Avg Weight change on day 5: +0.8 g
B16 melanoma; 1 mg/kg/day
  MST (Median survival time): 22.5 days
  T/C: 173%
  Avg Weight change on day 5: +0.5 g
B16 melanoma; 2 mg/kg/day
  MST (Median survival time): 26.7 days
  T/C: 204%
  Avg Weight change on day 5: +0.3 g

## CC(=O)Oc1cc(OC(C)=O)c2c(c1)N(C/C=C(\C)CC/C=C(\C)CCC=C(C)C)c1c(OC(C)=O)cccc1C(=O)N2 [Triacetyl BU-4664L]
5-lipoxygenase (5-LPO); [2]
  IC50: > 34 µM
5-lipoxygenase (5-LPO); rat 5-LPO
  5-LPO inhibitory activity: seemed to be devoid of 5-LPO inhibitory activity
HCT-116 cells
  cytotoxicity: weaker cytotoxicity
  IC50: 4.4 µg/mL (≈ 7.47 µM)
B16-F10 cells
  cytotoxicity: weaker cytotoxicity
  IC50: 2.4 µg/mL (≈ 4.08 µM)

## COc1cc(OC)c2c(c1)N(C/C=C(\C)CC/C=C(\C)CCC=C(C)C)c1c(OC)cccc1C(=O)N2 [Trimethyl BU-4664L]
5-lipoxygenase (5-LPO); [2]
  IC50: > 39.6 µM
5-lipoxygenase (5-LPO); rat 5-LPO
  5-LPO inhibitory activity: seemed to be devoid of 5-LPO inhibitory activity
HCT-116 cells
  cytotoxicity: weaker cytotoxicity
  IC50: 12.5 µg/mL (≈ 24.8 µM)
B16-F10 cells
  cytotoxicity: weaker cytotoxicity
  IC50: 21 µg/mL (≈ 41.6 µM)
